# Numbers after ± are expanded uncertainties.
# Details: Crystal; visual observation
row,Normal melting temperature,SMILES
1,153.20 ± 0.5 °C,"O=C(O)CCCCC(=O)O [1,6-hexanedioic acid]"
2,179.60 ± 0.5 °C,Cc1ccc(C(=O)O)cc1 [4-methylbenzoic acid]
3,122.4 ± 0.5 °C,O=C(O)c1ccccc1 [benzoic acid]
4,80.26 ± 0.5 °C,c1ccc2ccccc2c1 [naphthalene]
5,69.80 ± 0.5 °C,CCCCCCCCCCCCCCCCCC(=O)O [octadecanoic acid]
6,99.24 ± 0.5 °C,c1ccc2c(c1)ccc1ccccc12 [phenanthrene]

# Source: the NIST ThermoML archive (doi:10.1016/j.fluid.2015.12.021)
